Laboratory results from ChEMBL document CHEMBL4251715, “Hepatoprotective Dibenzocyclooctadiene and Tetrahydrobenzocyclooctabenzofuranone Lignans from Kadsura longipedunculata” (2018).

System: HepG2
Test: Hepatoprotective activity against APAP-induced toxicity in human HepG2 cells assessed as cell survival rate at 10 uM after 48 hrs by MTT assay relative to control
Assay type: functional
Conditions: HepG2, 48 h, read-out: Survival

Q: COC1=C(OC)C(=O)[C@]23COc4c5c(cc(c42)[C@H](OC(C)=O)[C@H](C)[C@H](C)CC3=C1)OCO5 was tested. Which viability at 10 µM did it give?
A: 50.2%

Q: How did the viability at 10 µM turn out when COC(=O)c1cc(OC)c2c(c1-c1c(CO)cc(OC)c3c1OCO3)OCO2 [BICYCLOL] was run?
A: 49%

Q: How did the viability at 10 µM turn out when COC1=C(OC)C(=O)[C@]23COc4c5c(cc(c42)[C@H](OC(=O)c2ccccc2)[C@H](C)[C@](C)(O)CC3=C1)OCO5 was run?
A: 52.2%
